“Also recorded” adds a separate entry of the source. Where no end group is shown, it is not given here. rhodamine = not defined here; Rhod = not defined here
Tests used:
[1] = system: HeLa cells transfected with GR-GFP; test: GR-GFP translocation assay (cytosolic access of Dex-labeled molecules); assay type: cell-based; settings: for translocation ratio (TR): HeLa cells expressing GR-GFP
Experimental: HeLa cells transfected with pK7-GR-GFP were plated in Matrical plates as described above. To label nuclei, the media was replaced with HKR buffer containing 300 nM Hoescht and the cells incubated for 30 min at 37° C.
Cells were then analyzed as described above.
HeLa cells transfected with pK7-GR-GFP for 24-36 hr were plated (10^4/well in 200 μL) the day prior to experiments in 96 well glass bottom plates (Matrical). The media was replaced with HKR buffer containing 300 nM Hoescht and the cells incubated for 30 min at 37° C. […] The cells were incubated for a further 30 min at 37° C. before epifluorescence imaging using a Zeiss Axiovert 200M microscope fitted with a mRM digital camera, a 63×1.3NA PlanApo objective and an EXFO-Excite illumination source.
Uptake was allowed to proceed for an additional 30 min at 37° C. before analysis by epifluorescence images as described elsewhere herein.
The image analysis algorithm used by CellProfiler is customizable and contained within a ‘Pipeline’ that describes a series of image manipulation and evaluation steps, such as reading the image, adjusting the intensity, and identifying objects. Each step has several options. […] Using the image of Hoescht fluorescence and Otsu's method of automatic thresholding, nuclei were identified and segmented using 3 class thresholding. The middle class was assigned to background. Closely approximated objects were separated using ‘Laplacian of Gaussian’ modeling, and touching nuclei were divided using the ‘shape’ option. Nuclear regions were expanded by 2 μm to generate an enlarged region. The nuclear region was subtracted from enlarged region to generate a ring surrounding the nucleus (surround). […] The ratio of the median intensities of the nuclear and surrounding region of the GFP or mCherry (as appropriate) image were collected for every cell examined. Those cells falling below a threshold of intensity (10% of the maximum intensity of the image) were discarded as ‘untransfected’. Typically, 20-60 transfected cells from 15-30 images were examined for each experimental condition.

[2] = system: HeLa cells transfected with pGR-mCherry and Rab5-GFP or Rab5Q79L-GFP; test: GR-mCherry translocation in cells expressing Rab5-GFP or Rab5Q79L-GFP; assay type: cell-based; settings: 1 μM, 30 min
Experimental: Cotransfected cells expressing Rab-GFP fusions and pGR-mCherry were identified via their characteristic pattern of green and red fluorescence. The translocation ratio was determined using median values of mCherry fluorescence within the nucleus and surrounding region using CellProfiler.
HeLa cells transfected for 24-36 hr with pGR-mCherry and either Rab5-GFP or Rab5Q79L-GFP were plated (10^4/well in […]) the day prior to experiments in 96 well glass bottom plates (Matrical). The cells were washed with HKR buffer and the nuclei labeled using Hoescht as above. […] The cells were incubated for a further 30 min at 37° C. before imaging. Cells that had been cotransfected with EGFP fusions were identified via their characteristic pattern of green and red fluorescence. To evaluate the extent of GR activation, epifluorescence images were obtained as described above, except the fluorescence of pGR-mCherry was also visualized using Zeiss Filter Set #43 (ex BP 545/25 nm, FT 570, em BP 605/70 nm).
The image analysis algorithm used by CellProfiler is customizable and contained within a ‘Pipeline’ that describes a series of image manipulation and evaluation steps, such as reading the image, adjusting the intensity, and identifying objects. Each step has several options. […] Using the image of Hoescht fluorescence and Otsu's method of automatic thresholding, nuclei were identified and segmented using 3 class thresholding. The middle class was assigned to background. Closely approximated objects were separated using ‘Laplacian of Gaussian’ modeling, and touching nuclei were divided using the ‘shape’ option. Nuclear regions were expanded by 2 μm to generate an enlarged region. The nuclear region was subtracted from enlarged region to generate a ring surrounding the nucleus (surround). The diameter of the surrounding region was chosen to be 2 μm larger than the nucleus, within the range (1-3 μm) used by previously reported high content screens (Ding et al., 1998, J Biol Chem. 273:28897-28905; Peeraniet al., 2007, EMBO J. 26:4744-4755). The ratio of the median intensities of the nuclear and surrounding region of the GFP or mCherry (as appropriate) image were collected for every cell examined. Those cells falling below a threshold of intensity (10% of the maximum intensity of the image) were discarded as ‘untransfected’. Typically, 20-60 transfected cells from 15-30 images were examined for each experimental condition.

[3] = system: U2OS(GIGI) cells; test: GIGI in lysates, stably transfected U2OS(GIGI) cells; assay type: cell-based; settings: Dex-labeled peptides, 24 h, lysates, read-out: EC50 (eGFP expression, GIGI)
Text: RFUs are expressed±standard deviation (Excel). The maximum induction level is defined as RFUmax. Data were processed using Kaleidagraph and GraphPad Prism software. RFU=([I530]/[I580])−([I′530]/[I′580]) (1)
Y=Ymin+(Ymax−Ymin)/(1+10^logEC50-X) (2)

[4] = system: HeLa cells; test: Colocalization with Alexa-488-transferrin (Tf488), live cell confocal microscopy; assay type: cell-based; settings: 1 μM, 30 min
Experimental: To examine the colocalization of rhodamine labeled miniature proteins or peptides with Alexa-488-transferrin (Tf488), HeLa cells were plated (200 μl, 10^4 cells/well, 96 well glass bottom plates, Matrical) the day prior to experiments. The media was replaced with 150 μL Hepes-Krebs-Ringer's (HKR) buffer (140 mM NaCl, 2 mM KCl, 1 mM CaCl2, 1 mM MgCl2, 10 mM Hepes pH 7.4) containing 1 μM miniature protein or 25 nM Alexa-488-transferrin (Molecular Probes) and the cells incubated at 37° C. for 30 min. The cells were then rinsed twice with 200 μL, HKR buffer and nuclei were labeled by overlaying 200 μL HKR containing 300 nM Hoechst 33342 (Molecular Probes Cat. # H3570) for 5 minutes. Images of cells were acquired using a PerkinElmer LiveView spinning disk confocal microscope fitted with a 60×1.2 NA objective. Colocalization with Rab-GFP fusions was examined in an analogous way using HeLa cells transfected with the appropriate expression plasmid.
Colocalization between rhodamine and fluorescein labeled miniature proteins and peptides, or between rhodamine labeled miniature proteins and markers of endocytosis was completed using confocal microscopy. Live cell confocal microscopy was conducted using a PerkinElmer LiveView spinning disk confocal microscope fitted with heated microscope enclosure (maintained at 37° C.), a 60×1.2 NA objective, laser illumination, a Nipkow CSU-1× spinning disk, and a Hammamatsu CS9100 EMCCD camera operated using Velocity software. Alexafluor-488-transferrin was detected using a 488 nm laser and a 520 nm long pass filter; tetraethylrhodamine and Alexafluor-546-transferrin were detected using a 546 nm laser line and a 580 nm long pass filter, Hoescht 33342 was detected using a 405 nm laser line and a 450 nm long pass filter. Images were processed for presentation by using the ‘subtract background’ option and linear contrast adjustments in Image J. All adjustments were applied uniformly to the entire image. Colocalization analysis was performed using the JACOP plugin (Bolte and Cordelières, 2006), available on the ImageJ website. The fraction of rhodamine signal overlapping with EGFP signal (R E G) was calculated using Mander's coefficient and automatic thresholding. Pearson's correlation coefficient (R) was also obtained using the JACOP plugin.

[5] = Figure 15
Text: Table printed on a drawing sheet, Figure 15
The amino acid sequence of Arg8 is provided in SEQ ID NO:68.
First reader's note: Cytosolic concentration and percent in cytosol are taken as measures of cell permeability or uptake; the supplied text has no description of Figure 15.

[6] = molecular target: cathepsin B (Homo sapiens, UniProt P07858); test: Resistance to acid proteases: cathepsin B; assay type: in vitro ADME; settings: 50 pmol, 30 min, 37° C., pH 5
Experimental: 50 pmol aPPR, 5.2R, 5.3R, ZF5.3R, TatR (SEQ ID NO:67), or Arg8R (SEQ ID NO:68) were incubated with 5 pg cathepsin B, D, or L for 30 min at 37° C. in 10 μL of 20 mM sodium phosphate buffer (pH 5) containing 150 mM NaCl. At the end of the incubation, the reaction was stopped by adding 40 μL of a solution containing a 84:15:1 ratio of water:EtOH:TFA before analysis by HPLC.

[7] = system: HeLa cells; test: Effects of endocytosis inhibitors on cell uptake, confocal microscopy; assay type: cell-based; settings: 1 μM rhodamine labeled, 30 min, 37° C.
Experimental: HeLa cells grown for 24 h in glass bottom plates were incubated with HKR buffer, or HKR buffer containing 80 μM dynasore, 50 μM N-ethyl-isopropyl-amiloride, or 5 mM methyl-β-cyclodextrin for 30 min at 37° C. prior to the addition of 1 μM rhodamine-labeled miniature protein or peptide (Tat (SEQ ID NO:67) and Arg8 (SEQ ID NO:68)). The cells were washed twice with DMEM, the nuclei labeled with Hoescht, and images acquired as described above for colocalization experiments.

[8] = system: HeLa cells; test: HPLC analysis of cytosolic extracts prepared with streptolysin O; assay type: cell-based; settings: HeLa cells treated with rhodamine labeled molecule
Experimental: To generate cytosolic extracts, HeLa cells were treated with streptolysin O (SLO), a well characterized bacterial toxin that creates pores in the plasma membranes of target cells (Walev et al., 2002, FASEB 16:237-239). […] Moreover, when the toxin is added to cultured cells at 4° C. and washed with PBS before raising the temperature to 37° C., pores are created only in the plasma membrane and the release of ER, golgi, or endolysosomal contents are avoided (Androlewicz et al., 1993, Proc Natl Acad Sci USA 90:9130-9134).
First, selective release of the cytoplasmic contents of HeLa cells using the published procedures was verified. HeLa cells were treated with 20 μg/mL SLO in PBS containing 5 mM DTT (20 min, 4° C.), washed (three PBS washes, 150 μL each), resuspended in PBS, and incubated at 37° C. for 15 min, after which 1.5 μM propidium iodide (PI), a marker of permeabilized cell membranes, was added.

K^DexGPSQPTYPGDDAPVEDLIRFYNDLQQYLNVVTRHRY-NH2 (K(dexamethasone)GPSQPTYPGDDAPVEDLIRFYNDLQQYLNVVTRHRY-NH2) [aPPDex]
effect of bafilomycin on TR ([1]; 200 nM bafilomycin pretreatment 1 h, then 1 μM): did not alter the effect
translocation ratio (TR) ([1]; 1 μM, 30 min): 1.41±0.09
effect of EIPA on TR ([1]; 50 μM EIPA pretreatment 30 min, then 1 μM, 30 min): None of the endocytosis inhibitors altered the TR
effect of dynasore on TR ([1]; 80 μM dynasore pretreatment 30 min, then 1 μM, 30 min): None of the endocytosis inhibitors altered the TR
effect of methyl-β-cyclodextrin (MβCD) on TR ([1]; 5 mM MβCD pretreatment 30 min, then 1 μM, 30 min): None of the endocytosis inhibitors altered the TR
TR (GR-mCherry), cells expressing Rab5Q79L-GFP or Rab5-GFP [2]: 1.25±0.04
EC50 [3]: 438 nM

K^RhodGPSQPTYPGDDAPVRDLIRFYRDLQRYLNVVTRHRY-NH2 (K(rhodamine)GPSQPTYPGDDAPVRDLIRFYRDLQRYLNVVTRHRY-NH2; reading uncertain; also: printed as K^RhodGPSQPTYPGDDAPVRDLIRFYRDLQRYLNVVTRHRY-NH2) [4.2R]
intracellular red fluorescent signal [4]: red fluorescent puncta throughout the cytosol

RRRRRRRR [Arg8]
% in cytosol [5]: 2.8%
[molecule] in cytosol [5]: 14.0 nM

K^RhodGPSQPTYPGDDAPVEDLIRFYRDLRRYLNVVTRHRY-NH2 (K(rhodamine)GPSQPTYPGDDAPVEDLIRFYRDLRRYLNVVTRHRY-NH2; reading uncertain; also: printed as K^RhodGPSQPTYPGDDAPVEDLIRFYRDLRRYLNVVTRHRY-NH2) [4.3R]
intracellular red fluorescent signal [4]: red fluorescent puncta throughout the cytosol

K^DexWYSCNVCGKAFVLSAHLNQHLAVHTQAT-NH2 (K(dexamethasone)WYSCNVCGKAFVLSAHLNQHLAVHTQAT-NH2; cysteine pairing not given here) [ZFDex]
translocation ratio (TR) ([1]; 1 μM, 30 min): 1.4±0.05
EC50 [3]: 103 nM

K^RhodGPSQPTYPGDDAPVRDLIRFYRDLQRYLRVVTRHRY-NH2 (K(Rhod)GPSQPTYPGDDAPVRDLIRFYRDLQRYLRVVTRHRY-NH2; reading uncertain; also: printed as KRhodGPSQPTYPGDDAPVRDLIRFYRDLQRYLRVVTRHRY-NH2) [5.2R]
intracellular red fluorescent signal [4]: red fluorescent puncta throughout the cytosol
degradation by cathepsin B (HPLC) [6]: several additional small peaks

K^RhodRRRRRRRR-NH2 (K(Rhod)RRRRRRRR-NH2; reading uncertain; also: printed as K^RhodRRRRRRRR-NH2) [Arg8R]
intracellular red fluorescent signal [4]: red fluorescent puncta throughout the cytosol
effect of EIPA on uptake ([7]; 50 μM EIPA): dramatically reduced the uptake
effect of dynasore on uptake ([7]; 80 μM dynasore): completely blocked the uptake
effect of MβCD on uptake ([7]; 5 mM MβCD): increased
material found in SLO cytoplasmic extracts (HPLC) [8]: retention times distinct from the starting material; also recorded: little or no material with the same retention time as the starting material
degradation by cathepsin B (HPLC) [6]: little or no degradation

WYSCNVCGKAFVLSRHLNRHLRVHRRAT [ZF5.3]
% in cytosol [5]: 59%
[molecule] in cytosol [5]: 249 nM

C[C@@H]1C[C@H]2[C@@H]3CCC4=CC(=O)C=C[C@]4(C)[C@@]3(F)[C@@H](O)C[C@]2(C)[C@@]1(O)C(=O)CO [Dex, dexamethasone]
reduction of the increase in TR by MβCD ([1]; 5 mM MβCD, 1 μM): 53%
TR (GR-mCherry), Rab5Q79L-GFP expressing cells ([2]; Rab5Q79L-GFP): 2.45±0.21
TR (GR-mCherry), Rab5-GFP expressing cells ([2]; wild-type Rab5-GFP): 2.24±0.15

GRKKRRQRRRPPQY [Tat]
% in cytosol [5]: 0.93%
[molecule] in cytosol [5]: 4.63 nM
